{
  "source": "paper PMC5218480",
  "about": "(PLoS ONE, 2017)",
  "test_system": "MV-4-11 cells",
  "test": "Gene expression microarray analysis (Affymetrix PrimeView) and GSEA",
  "format": "cell-based, human",
  "parameters": "RFU PODN (11730768_x_at) / Fold change /veh PODN (11730768_x_at) / RFU LINC00158 (11744669_a_at) / Fold change /veh LINC00158 (11744669_a_at) / RFU DUSP10 (11751237_a_at) / Fold change /veh DUSP10 (11751237_a_at) / RFU ID3 (11757404_x_at) / Fold change /veh ID3 (11757404_x_at) / RFU PLEKHG5 (11737974_s_at) / Fold change /veh PLEKHG5 (11737974_s_at) / RFU LRRC4B (11730491_at) / Fold change /veh LRRC4B (11730491_at) / RFU GIMAP4 (11747438_a_at) / Fold change /veh GIMAP4 (11747438_a_at) / RFU KRT8 (11758183_x_at) / Fold change /veh KRT8 (11758183_x_at) / RFU CNN1 (11734310_a_at) / Fold change /veh CNN1 (11734310_a_at) / RFU VPS37D (11726825_at) / Fold change /veh VPS37D (11726825_at) / RFU C10orf10 (11716522_x_at) / Fold change /veh C10orf10 (11716522_x_at) / RFU KIR2DL2 /// KIR2DL4 /// KIR2DL5A /// KIR2DL5B /// KIR2DS1 /// KIR2DS2 /// KIR2DS3 /// KIR2DS4 /// KIR3DL3 /// KIR3DL3 /// KIR3DS1 (11738374_at) / Fold change /veh KIR2DL2 /// KIR2DL4 /// KIR2DL5A /// KIR2DL5B /// KIR2DS1 /// KIR2DS2 /// KIR2DS3 /// KIR2DS4 /// KIR3DL3 /// KIR3DL3 /// KIR3DS1 (11738374_at) / RFU C1QL1 (11718748_at) / Fold change /veh C1QL1 (11718748_at) / RFU TMPRSS4 (11747572_a_at) / Fold change /veh TMPRSS4 (11747572_a_at) / RFU HAMP (11756126_x_at) / Fold change /veh HAMP (11756126_x_at) / RFU RNFT2 (11725882_a_at) / Fold change /veh RNFT2 (11725882_a_at) / RFU NR4A2 (11747474_a_at) / Fold change /veh NR4A2 (11747474_a_at) / RFU ABCC12 (11746883_a_at) / Fold change /veh ABCC12 (11746883_a_at) / RFU TMEM136 (11760407_x_at) / Fold change /veh TMEM136 (11760407_x_at) / RFU CLDN22 /// WWC2 (11732394_at) / Fold change /veh CLDN22 /// WWC2 (11732394_at) / RFU HLA-DPB1 (11760878_x_at) / Fold change /veh HLA-DPB1 (11760878_x_at) / RFU SPINT1 (11716480_a_at) / Fold change /veh SPINT1 (11716480_a_at) / RFU GAP43 (11754022_s_at) / Fold change /veh GAP43 (11754022_s_at) / RFU A4GNT (11735810_at) / Fold change /veh A4GNT (11735810_at) / RFU PRB3 (11715151_x_at) / Fold change /veh PRB3 (11715151_x_at) / RFU TUBB4B (11761932_at) / Fold change /veh TUBB4B (11761932_at) / RFU CAPN14 (11732068_a_at) / Fold change /veh CAPN14 (11732068_a_at) / RFU TMCC2 (11721928_a_at) / Fold change /veh TMCC2 (11721928_a_at) / RFU IRGQ (11745062_a_at) / Fold change /veh IRGQ (11745062_a_at) / RFU FAM174B (11720279_a_at) / Fold change /veh FAM174B (11720279_a_at) / RFU TMPRSS4 (11748680_a_at) / Fold change /veh TMPRSS4 (11748680_a_at) / RFU FAM212B (11763350_a_at) / Fold change /veh FAM212B (11763350_a_at) / RFU PLEKHG5 (11743358_a_at) / Fold change /veh PLEKHG5 (11743358_a_at) / RFU ZSCAN30 (11745921_a_at) / Fold change /veh ZSCAN30 (11745921_a_at) / RFU CMKLR1 (11741424_a_at) / Fold change /veh CMKLR1 (11741424_a_at) / RFU LOC101060620 /// MAPK8IP1 (11723275_at) / Fold change /veh LOC101060620 /// MAPK8IP1 (11723275_at) / RFU SPTSSB (11747773_x_at) / Fold change /veh SPTSSB (11747773_x_at) / RFU PRSS12 (11739890_at) / Fold change /veh PRSS12 (11739890_at) / RFU BIN1 (11741810_x_at) / Fold change /veh BIN1 (11741810_x_at) / RFU WNT11 (11732464_a_at) / Fold change /veh WNT11 (11732464_a_at) / RFU C10orf10 (11716521_a_at) / Fold change /veh C10orf10 (11716521_a_at) / RFU C5orf56 (11738089_at) / Fold change /veh C5orf56 (11738089_at) / RFU CYB561 (11721691_x_at) / Fold change /veh CYB561 (11721691_x_at) / RFU ANKRD19P (11752326_a_at) / Fold change /veh ANKRD19P (11752326_a_at) / RFU OR2T12 /// OR2T33 /// OR2T8 (11738714_s_at) / Fold change /veh OR2T12 /// OR2T33 /// OR2T8 (11738714_s_at) / RFU VCAN (11748164_a_at) / Fold change /veh VCAN (11748164_a_at) / RFU JSRP1 (11732532_at) / Fold change /veh JSRP1 (11732532_at) / RFU KRTAP10-11 (11738290_x_at) / Fold change /veh KRTAP10-11 (11738290_x_at) / RFU MYO3A (11730013_a_at) / Fold change /veh MYO3A (11730013_a_at) / RFU EBF3 (11725865_a_at) / Fold change /veh EBF3 (11725865_a_at) / RFU CAMK2N1 (11719241_x_at) / Fold change /veh CAMK2N1 (11719241_x_at) / RFU C5orf56 (11738088_a_at) / Fold change /veh C5orf56 (11738088_a_at) / RFU OLFML3 (11715873_a_at) / Fold change /veh OLFML3 (11715873_a_at) / RFU LOC100653217 /// NTM (11731650_a_at) / Fold change /veh LOC100653217 /// NTM (11731650_a_at) / RFU MAPK11 (11762145_a_at) / Fold change /veh MAPK11 (11762145_a_at) / RFU FIZ1 (11724087_x_at) / Fold change /veh FIZ1 (11724087_x_at) / RFU OASL (11726364_x_at) / Fold change /veh OASL (11726364_x_at) / RFU SOX15 (11748057_x_at) / Fold change /veh SOX15 (11748057_x_at) / RFU CD79A (11719716_a_at) / Fold change /veh CD79A (11719716_a_at) / RFU HIST1H1D (11736915_at) / Fold change /veh HIST1H1D (11736915_at) / RFU CASKIN2 (11723855_a_at) / Fold change /veh CASKIN2 (11723855_a_at) / RFU LOC730098 (11760151_x_at) / Fold change /veh LOC730098 (11760151_x_at) / RFU OR4N2 (11742367_at) / Fold change /veh OR4N2 (11742367_at) / RFU PRRT2 (11749266_a_at) / Fold change /veh PRRT2 (11749266_a_at) / RFU SNX32 (11753110_a_at) / Fold change /veh SNX32 (11753110_a_at) / RFU CDHR5 (11726645_a_at) / Fold change /veh CDHR5 (11726645_a_at) / RFU RCAN1 (11760418_a_at) / Fold change /veh RCAN1 (11760418_a_at) / RFU FAM167A (11723789_a_at) / Fold change /veh FAM167A (11723789_a_at) / RFU FAM26E (11764081_at) / Fold change /veh FAM26E (11764081_at) / RFU ISYNA1 (11749810_s_at) / Fold change /veh ISYNA1 (11749810_s_at) / RFU ACY1 (11761880_at) / Fold change /veh ACY1 (11761880_at) / RFU 11764098_at / Fold change /veh 11764098_at / RFU SAMD14 (11745864_x_at) / Fold change /veh SAMD14 (11745864_x_at) / RFU NPB (11741838_a_at) / Fold change /veh NPB (11741838_a_at) / RFU TMPRSS6 (11731388_a_at) / Fold change /veh TMPRSS6 (11731388_a_at) / RFU KRTAP10-2 (11738614_at) / Fold change /veh KRTAP10-2 (11738614_at) / RFU ARHGAP8 /// PRR5-ARHGAP8 (11727945_x_at) / Fold change /veh ARHGAP8 /// PRR5-ARHGAP8 (11727945_x_at) / RFU KRTAP5-7 /// NADSYN1 (11734609_at) / Fold change /veh KRTAP5-7 /// NADSYN1 (11734609_at) / RFU RASL12 (11751679_a_at) / Fold change /veh RASL12 (11751679_a_at) / RFU CDKN2B (11736163_a_at) / Fold change /veh CDKN2B (11736163_a_at) / RFU PRF1 (11729649_at) / Fold change /veh PRF1 (11729649_at) / RFU, ZNF638 /// ZNF638-IT1 / Fold change vs veh, ZNF638 /// ZNF638-IT1 / RFU, PANK3 / Fold change vs veh, PANK3 / RFU, SH3YL1 / Fold change vs veh, SH3YL1 / RFU, ZEB2 / Fold change vs veh, ZEB2 / RFU, NRIP1 / Fold change vs veh, NRIP1 / RFU, PTTG1IP / Fold change vs veh, PTTG1IP / RFU, CAPN2 / Fold change vs veh, CAPN2 / RFU, MED14 / Fold change vs veh, MED14 / RFU, SNORA58 / Fold change vs veh, SNORA58 / RFU, C1orf63 / Fold change vs veh, C1orf63 / RFU, LRRFIP1 / Fold change vs veh, LRRFIP1 / RFU, NDUFAF7 / Fold change vs veh, NDUFAF7 / RFU, SLC12A2 / Fold change vs veh, SLC12A2 / RFU, IBTK / Fold change vs veh, IBTK / RFU, ESF1 / Fold change vs veh, ESF1 / Fold change vs veh, TMEM50B / RFU, TAOK1 / Fold change vs veh, TAOK1 / RFU, ACBD3 / Fold change vs veh, ACBD3 / RFU, TMA16 / Fold change vs veh, TMA16 / RFU, RWDD3 / Fold change vs veh, RWDD3 / RFU, BCAT1 / Fold change vs veh, BCAT1 / RFU, EDEM3 / Fold change vs veh, EDEM3 / RFU, TMEM33 / Fold change vs veh, TMEM33 / RFU, WDR75 / Fold change vs veh, WDR75 / RFU, AHCTF1 / Fold change vs veh, AHCTF1 / RFU, TFRC / Fold change vs veh, TFRC / RFU, ZDHHC17 / Fold change vs veh, ZDHHC17 / RFU, NOM1 / Fold change vs veh, NOM1 / RFU, ARL8B / Fold change vs veh, ARL8B / RFU, ZBTB11 / Fold change vs veh, ZBTB11 / RFU, TAMM41 / Fold change vs veh, TAMM41 / RFU, KIAA1704 /// LOC100996395 / Fold change vs veh, KIAA1704 /// LOC100996395 / RFU, ING1 / Fold change vs veh, ING1 / RFU, TRMT61B / Fold change vs veh, TRMT61B / RFU, FUBP3 / Fold change vs veh, FUBP3 / RFU, TP53 / Fold change vs veh, TP53 / RFU, TNKS2 / Fold change vs veh, TNKS2 / RFU, ZFP14 / Fold change vs veh, ZFP14 / RFU, ACTR2 / Fold change vs veh, ACTR2 / RFU, PPP3R1 / Fold change vs veh, PPP3R1 / RFU, PIK3R1 / Fold change vs veh, PIK3R1 / RFU, HNRNPA1 / Fold change vs veh, HNRNPA1 / RFU, RNF170 / Fold change vs veh, RNF170 / RFU, ZNF28 / Fold change vs veh, ZNF28 / RFU, RNGTT / Fold change vs veh, RNGTT / RFU, OGT / Fold change vs veh, OGT / RFU, BRD1 / Fold change vs veh, BRD1 / RFU, MARS / Fold change vs veh, MARS / RFU, ZNF655 / Fold change vs veh, ZNF655 / RFU, FAHD1 / Fold change vs veh, FAHD1 / RFU, BDP1 / Fold change vs veh, BDP1 / RFU, LRRCC1 / Fold change vs veh, LRRCC1 / RFU, ARID1A / Fold change vs veh, ARID1A / RFU, ZNF146 / Fold change vs veh, ZNF146 / RFU, ZNF330 / Fold change vs veh, ZNF330 / RFU, GPN3 / Fold change vs veh, GPN3 / RFU, C9orf123 / Fold change vs veh, C9orf123 / RFU, N4BP2L2 / Fold change vs veh, N4BP2L2 / RFU, ARFIP1 / Fold change vs veh, ARFIP1 / RFU, FAM179B / Fold change vs veh, FAM179B / RFU, BCL10 / Fold change vs veh, BCL10 / RFU, UHRF1BP1L / Fold change vs veh, UHRF1BP1L / RFU, BET1 / Fold change vs veh, BET1 / RFU, CNOT2 / Fold change vs veh, CNOT2 / RFU, ZNF268 / Fold change vs veh, ZNF268 / Fold change vs veh, ZNF507 / RFU, DGCR2 / Fold change vs veh, DGCR2 / RFU, WDSUB1 / Fold change vs veh, WDSUB1 / Fold change vs veh, HSP90B1 /// MIR3652 / RFU, ADSS / Fold change vs veh, ADSS / RFU, GK / Fold change vs veh, GK / RFU, ZNF148 / Fold change vs veh, ZNF148 / RFU, TAF9 / Fold change vs veh, TAF9 / RFU, SLC1A5 / Fold change vs veh, SLC1A5 / RFU, SLMO2 / Fold change vs veh, SLMO2 / RFU, ABCC4 / Fold change vs veh, ABCC4 / RFU, LOC101060439 /// RAP1B / Fold change vs veh, LOC101060439 /// RAP1B / RFU, RFX7 / Fold change vs veh, RFX7 / RFU, GTPBP10 / Fold change vs veh, GTPBP10 / RFU, CNEP1R1 / Fold change vs veh, CNEP1R1 / RFU, BIVM-ERCC5 /// ERCC5 / Fold change vs veh, BIVM-ERCC5 /// ERCC5 / RFU, ILF3 / Fold change vs veh, ILF3 / RFU 11762660_at / Fold change /veh 11762660_at / RFU VCAN (11757783_s_at) / Fold change /veh VCAN (11757783_s_at) / RFU DDX43 (11728927_at) / Fold change /veh DDX43 (11728927_at) / RFU KRT8 (11758188_x_at) / Fold change /veh KRT8 (11758188_x_at) / RFU NKD1 (11759106_at) / Fold change /veh NKD1 (11759106_at) / RFU SRD5A1 (11742802_a_at) / Fold change /veh SRD5A1 (11742802_a_at) / RFU TPSAB1 /// TPSB2 (11721975_s_at) / Fold change /veh TPSAB1 /// TPSB2 (11721975_s_at) / RFU GSTM3 (11746129_a_at) / Fold change /veh GSTM3 (11746129_a_at) / RFU IL23R (11737362_x_at) / Fold change /veh IL23R (11737362_x_at) / RFU TMEM51 (11727254_a_at) / Fold change /veh TMEM51 (11727254_a_at) / RFU PIWIL2 (11732686_x_at) / Fold change /veh PIWIL2 (11732686_x_at) / RFU ORM1 (11744905_x_at) / Fold change /veh ORM1 (11744905_x_at) / RFU CCDC152 (11743942_at) / Fold change /veh CCDC152 (11743942_at) / RFU ECM1 (11717891_a_at) / Fold change /veh ECM1 (11717891_a_at) / RFU IL23R (11748794_a_at) / Fold change /veh IL23R (11748794_a_at) / RFU TNFAIP8L3 (11732012_x_at) / Fold change /veh TNFAIP8L3 (11732012_x_at) / RFU MBOAT4 (11741988_at) / Fold change /veh MBOAT4 (11741988_at) / RFU 11764193_at / Fold change /veh 11764193_at / RFU TMEM53 (11763286_at) / Fold change /veh TMEM53 (11763286_at) / RFU MAGEB2 (11727129_at) / Fold change /veh MAGEB2 (11727129_at) / RFU TMEM200A (11744735_a_at) / Fold change /veh TMEM200A (11744735_a_at) / RFU CCDC152 (11751479_a_at) / Fold change /veh CCDC152 (11751479_a_at) / RFU FAM211A (11726209_a_at) / Fold change /veh FAM211A (11726209_a_at) / RFU RGS16 (11746705_a_at) / Fold change /veh RGS16 (11746705_a_at) / RFU VCAN (11755009_s_at) / Fold change /veh VCAN (11755009_s_at) / RFU RHOB (11743442_s_at) / Fold change /veh RHOB (11743442_s_at) / RFU RGS16 (11720943_a_at) / Fold change /veh RGS16 (11720943_a_at) / RFU RGS16 (11720944_at) / Fold change /veh RGS16 (11720944_at) / RFU, VPS4B / Fold change vs veh, VPS4B / RFU, CREB1 / Fold change vs veh, CREB1 / RFU, DNAJC13 / Fold change vs veh, DNAJC13 / RFU, GNAQ / Fold change vs veh, GNAQ / RFU, CDK5R1 / Fold change vs veh, CDK5R1 / RFU, ZRANB3 / Fold change vs veh, ZRANB3 / RFU, CUL4A / Fold change vs veh, CUL4A / RFU, CCNY / Fold change vs veh, CCNY / RFU, UFL1 / Fold change vs veh, UFL1 / RFU, COG3 / Fold change vs veh, COG3 / RFU, DIAPH2 / Fold change vs veh, DIAPH2 / RFU, SKA2 / Fold change vs veh, SKA2 / RFU, AFF3 / Fold change vs veh, AFF3 / RFU, LMF1 / Fold change vs veh, LMF1 / RFU, IPO11 / Fold change vs veh, IPO11 / RFU, DFFB / Fold change vs veh, DFFB / RFU, FOXP1 / Fold change vs veh, FOXP1 / RFU, CARD8 / Fold change vs veh, CARD8 / RFU, STRN3 / Fold change vs veh, STRN3 / RFU, ADK / Fold change vs veh, ADK / RFU, RASSF2 / Fold change vs veh, RASSF2 / RFU, WIPF1 / Fold change vs veh, WIPF1 / RFU, LARP1B / Fold change vs veh, LARP1B / RFU, RASA1 / Fold change vs veh, RASA1 / RFU, RB1 / Fold change vs veh, RB1 / RFU, PPFIA1 / Fold change vs veh, PPFIA1 / RFU, MAT2A / Fold change vs veh, MAT2A / RFU, CCT5 / Fold change vs veh, CCT5 / RFU, WDR92 / Fold change vs veh, WDR92 / RFU, CUX1 / Fold change vs veh, CUX1 / RFU, TTC7A / Fold change vs veh, TTC7A / RFU, TMEM135 / Fold change vs veh, TMEM135 / RFU, DEPTOR / Fold change vs veh, DEPTOR / RFU, CPM / Fold change vs veh, CPM / RFU, DNAJB6 / Fold change vs veh, DNAJB6 / RFU, CACNA2D3 / Fold change vs veh, CACNA2D3 / RFU, DTX4 / Fold change vs veh, DTX4 / RFU, TFCP2 / Fold change vs veh, TFCP2 / RFU, GMCL1 /// GMCL1P1 / Fold change vs veh, GMCL1 /// GMCL1P1 / RFU, AEBP2 / Fold change vs veh, AEBP2 / RFU, SNHG1 /// SNORD22 /// SNORD25 /// SNORD26 /// SNORD27 /// SNORD28 /// SNORD29 /// SNORD31 / Fold change vs veh, SNHG1 /// SNORD22 /// SNORD25 /// SNORD26 /// SNORD27 /// SNORD28 /// SNORD29 /// SNORD31 / Fold change (Aza/veh), C12orf56 (ProbeSet 11735607_a_at) / Fold change (ACY-1035/veh), C12orf56 (ProbeSet 11735607_a_at) / Fold change (Aza/veh), FGFR1OP (ProbeSet 11751329_s_at) / Fold change (ACY-1035/veh), FGFR1OP (ProbeSet 11751329_s_at) / Fold change (Aza/veh), VPS36 (ProbeSet 11739960_a_at) / Fold change (ACY-1035/veh), VPS36 (ProbeSet 11739960_a_at) / RFU SYPL1 (11715823_x_at) / Fold change /veh SYPL1 (11715823_x_at) / RFU IGFBP7 (11715501_s_at) / Fold change /veh IGFBP7 (11715501_s_at) / RFU REEP3 (11722064_at) / Fold change /veh REEP3 (11722064_at) / RFU IGLL1 (11728026_x_at) / Fold change /veh IGLL1 (11728026_x_at): dose or concentration left out as unconfirmed",
  "conditions": "ProbeSet 11743510_at; LIST D",
  "data": [
    {"smiles": "Nc1ccc(-c2cccs2)cc1NC(=O)c1ccc2c(c1)cc(C1CC1)n2CCN1CCOCC1", "note": "[ACY-1035]", "values": [
      {"measurement": "RFU, UFL1", "result": 325.04, "unit": "RFU"}
    ]}
  ]
}
